Measurements reported in PubChem BioAssay AID2060910 (Molecular Pharmacology Branch, DTP, NCI, 2025).
One block for each compound: values may come before it.

Tested on: 242566-281-R-J2-PDC complex spheroid viability
Test: Anticancer human tumor 242566-281-R-J2-PDC patient-derived pancreatic carcinoma cell line growth inhibition [RAS]
Conditions: for IC50: curve of first compound; for viability, T/C: stronger effect = lower value
Outline: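 Multi-cell-type spheroids: tumor cells plus HUVEC endothelial cells and mesenchymal stem cells. RAS-pathway inhibitors were combined with targeted agents, each dosed in half-log steps down from clinical Cmax, or from 10 microM when Cmax was unknown.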

[1] = second compound 0.000949 µM, first compound 0.0316 µM
[2] = second compound 0.000949 µM, first compound 0.1 µM
[3] = second compound 0.000949 µM, first compound 0.316 µM
[4] = second compound 0.000949 µM, first compound 1 µM
[5] = second compound 0.000949 µM, first compound 3.16 µM
[6] = second compound 0.000949 µM, first compound 10 µM
[7] = second compound 0.003 µM, first compound 0.0316 µM
[8] = second compound 0.003 µM, first compound 0.1 µM
[9] = second compound 0.003 µM, first compound 0.316 µM
[10] = second compound 0.003 µM, first compound 1 µM
[11] = second compound 0.003 µM, first compound 3.16 µM
[12] = second compound 0.003 µM, first compound 10 µM
[13] = second compound 0.00949 µM, first compound 0.0316 µM
[14] = second compound 0.00949 µM, first compound 0.1 µM
[15] = second compound 0.00949 µM, first compound 0.316 µM
[16] = second compound 0.00949 µM, first compound 1 µM
[17] = second compound 0.00949 µM, first compound 3.16 µM
[18] = second compound 0.00949 µM, first compound 10 µM
[19] = second compound 0.03 µM, first compound 0.0316 µM
[20] = second compound 0.03 µM, first compound 0.1 µM
[21] = second compound 0.03 µM, first compound 0.316 µM
[22] = second compound 0.03 µM, first compound 1 µM
[23] = second compound 0.03 µM, first compound 3.16 µM
[24] = second compound 0.03 µM, first compound 10 µM
[25] = second compound 0.0949 µM, first compound 0.0316 µM
[26] = second compound 0.0949 µM, first compound 0.1 µM
[27] = second compound 0.0949 µM, first compound 0.316 µM
[28] = second compound 0.0949 µM, first compound 1 µM
[29] = second compound 0.0949 µM, first compound 3.16 µM
[30] = second compound 0.0949 µM, first compound 10 µM
[31] = second compound 0.3 µM, first compound 0.0316 µM
[32] = second compound 0.3 µM, first compound 0.1 µM
[33] = second compound 0.3 µM, first compound 0.316 µM
[34] = second compound 0.3 µM, first compound 1 µM
[35] = second compound 0.3 µM, first compound 3.16 µM
[36] = second compound 0.3 µM, first compound 10 µM
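Note: spheroids exposed to compound for 7 days before readout.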
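Throughout, for viability, T/C: 100% = DMSO vehicle control wells.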

- IC50 (second compound 0.000949 µM): < 0.0316 µM
- IC50 (second compound 0.003 µM): < 0.0316 µM
- IC50 (second compound 0.00949 µM): < 0.0316 µM
- IC50 (second compound 0.03 µM): < 0.0316 µM
- IC50 (second compound 0.0949 µM): < 0.0316 µM
- IC50 (second compound 0.3 µM): < 0.0316 µM
SMILES: CC(=O)OC12COC1CC(O)C1(C)C(=O)C(O)C3=C(C)C(OC(=O)C(O)C(NC(=O)OC(C)(C)C)c4ccccc4)CC(O)(C(OC(=O)c4ccccc4)C21)C3(C)C (stereo unspecified) + CCn1c(-c2cccnc2C(C)OC)c2c3cc(ccc31)N1CCOC(CC(NC(=O)C(C(C)C)N(C)C(=O)C3(F)CCN(C(=O)C#CC(C)(C)N(C)C)CC3)C(=O)N3CCCC(N3)C(=O)OCC(C)(C)C2)C1
- viability, T/C [1]: 47.2%
- viability, T/C [2]: 33.6%
- viability, T/C [3]: 26.5%
- viability, T/C [4]: 35.8%
- viability, T/C [5]: 40.1%
- viability, T/C [6]: 38.8%
- viability, T/C [7]: 40.7%
- viability, T/C [8]: 30.1%
- viability, T/C [9]: 32.4%
- viability, T/C [10]: 35.7%
- viability, T/C [11]: 40.7%
- viability, T/C [12]: 33.9%
- viability, T/C [13]: 46.7%
- viability, T/C [14]: 32.3%
- viability, T/C [15]: 35.8%
- viability, T/C [16]: 37.7%
- viability, T/C [17]: 35.9%
- viability, T/C [18]: 34.9%
- viability, T/C [19]: 43.2%
- viability, T/C [20]: 33.9%
- viability, T/C [21]: 31.8%
- viability, T/C [22]: 34.6%
- viability, T/C [23]: 29.3%
- viability, T/C [24]: 43.4%
- viability, T/C [25]: 36.9%
- viability, T/C [26]: 34.5%
- viability, T/C [27]: 31.4%
- viability, T/C [28]: 33.2%
- viability, T/C [29]: 27.9%
- viability, T/C [30]: 40.3%
- viability, T/C [31]: 26.3%
- viability, T/C [32]: 27%
- viability, T/C [33]: 26.2%
- viability, T/C [34]: 20.2%
- viability, T/C [35]: 27%
- viability, T/C [36]: 29.4%

- IC50 (second compound 0.000949 µM): 2.28 µM
- IC50 (second compound 0.003 µM): 2.04 µM
- IC50 (second compound 0.00949 µM): 3.21 µM
- IC50 (second compound 0.03 µM): 1.85 µM
- IC50 (second compound 0.0949 µM): 1.12 µM
- IC50 (second compound 0.3 µM): 0.329 µM
SMILES: NC1c2ccccc2OC12CCN(c1cnc3c(N4CCCc5ncccc54)n[nH]c3n1)CC2 (stereo unspecified) + CCn1c(-c2cccnc2C(C)OC)c2c3cc(ccc31)N1CCOC(CC(NC(=O)C(C(C)C)N(C)C(=O)C3(F)CCN(C(=O)C#CC(C)(C)N(C)C)CC3)C(=O)N3CCCC(N3)C(=O)OCC(C)(C)C2)C1
- viability, T/C [1]: 89.6%
- viability, T/C [2]: 80.3%
- viability, T/C [3]: 54.3%
- viability, T/C [4]: 64.5%
- viability, T/C [5]: 57.4%
- viability, T/C [6]: 28.6%
- viability, T/C [7]: 92.4%
- viability, T/C [8]: 76.2%
- viability, T/C [9]: 62.7%
- viability, T/C [10]: 62.4%
- viability, T/C [11]: 54.4%
- viability, T/C [12]: 25.5%
- viability, T/C [13]: 82.3%
- viability, T/C [14]: 77.1%
- viability, T/C [15]: 69.1%
- viability, T/C [16]: 64.6%
- viability, T/C [17]: 51.9%
- viability, T/C [18]: 28.3%
- viability, T/C [19]: 91%
- viability, T/C [20]: 81.3%
- viability, T/C [21]: 69.8%
- viability, T/C [22]: 59.6%
- viability, T/C [23]: 41.1%
- viability, T/C [24]: 36.8%
- viability, T/C [25]: 75.1%
- viability, T/C [26]: 71.7%
- viability, T/C [27]: 62%
- viability, T/C [28]: 55%
- viability, T/C [29]: 33.3%
- viability, T/C [30]: 26.5%
- viability, T/C [31]: 68.2%
- viability, T/C [32]: 56.4%
- viability, T/C [33]: 52.8%
- viability, T/C [34]: 38.9%
- viability, T/C [35]: 33.5%
- viability, T/C [36]: 21.1%

- IC50 (second compound 0.000949 µM): 0.053 µM
- IC50 (second compound 0.003 µM): 0.0722 µM
- IC50 (second compound 0.00949 µM): 0.0901 µM
- IC50 (second compound 0.03 µM): 0.0679 µM
- IC50 (second compound 0.0949 µM): 0.0753 µM
- IC50 (second compound 0.3 µM): 0.0505 µM
SMILES: Nc1ccn(C2OC(CO)C(O)C2(F)F)c(=O)n1 (stereo unspecified) + CCn1c(-c2cccnc2C(C)OC)c2c3cc(ccc31)N1CCOC(CC(NC(=O)C(C(C)C)N(C)C(=O)C3(F)CCN(C(=O)C#CC(C)(C)N(C)C)CC3)C(=O)N3CCCC(N3)C(=O)OCC(C)(C)C2)C1
- viability, T/C (second compound 0.000949 µM, first compound 0.00316 µM): 114%
- viability, T/C (second compound 0.000949 µM, first compound 0.01 µM): 88%
- viability, T/C [1]: 50.5%
- viability, T/C [2]: 45.3%
- viability, T/C [3]: 23.3%
- viability, T/C [4]: 11.2%
- viability, T/C (second compound 0.003 µM, first compound 0.00316 µM): 104%
- viability, T/C (second compound 0.003 µM, first compound 0.01 µM): 87.2%
- viability, T/C [7]: 71.2%
- viability, T/C [8]: 42%
- viability, T/C [9]: 21.2%
- viability, T/C [10]: 11.6%
- viability, T/C (second compound 0.00949 µM, first compound 0.00316 µM): 104%
- viability, T/C (second compound 0.00949 µM, first compound 0.01 µM): 92.3%
- viability, T/C [13]: 81.2%
- viability, T/C [14]: 46.6%
- viability, T/C [15]: 21.6%
- viability, T/C [16]: 13.2%
- viability, T/C (second compound 0.03 µM, first compound 0.00316 µM): 101%
- viability, T/C (second compound 0.03 µM, first compound 0.01 µM): 96%
- viability, T/C [19]: 68.5%
- viability, T/C [20]: 41.9%
- viability, T/C [21]: 16.4%
- viability, T/C [22]: 12%
- viability, T/C (second compound 0.0949 µM, first compound 0.00316 µM): 86.4%
- viability, T/C (second compound 0.0949 µM, first compound 0.01 µM): 87.1%
- viability, T/C [25]: 64.7%
- viability, T/C [26]: 49.2%
- viability, T/C [27]: 14.1%
- viability, T/C [28]: 13.4%
- viability, T/C (second compound 0.3 µM, first compound 0.00316 µM): 91.7%
- viability, T/C (second compound 0.3 µM, first compound 0.01 µM): 81.8%
- viability, T/C [31]: 65.6%
- viability, T/C [32]: 28.4%
- viability, T/C [33]: 15.5%
- viability, T/C [34]: 10.1%
